Test results: patent US20250025451A1, “TREATMENT OF CANCER WITH KDM4 INHIBITORS” (Celgene Corporation, priority 2021, published 2025)
pIC50: −log10 of the molar value. “And” between values parts separate entries of the source, which are not always exact repeats. Equal entries are not always repeated. Where two headings read alike, the source gives them in different places.

Columns and labels:
ZR-75-1 = assay: cell-proliferation assay (MTS), ZR-75-1; format: cell-based; settings: ZR-75-1, human breast carcinoma, 168 hours
Procedure: Compound 1 was evaluated in in vitro cell-proliferation assays (BrdU assay, MTS assay, or Cell Titer Glo (CTG) assay) in multiple cancer cell lines and patient-derived organoid models to determine half-maximal inhibitory concentrations (IC50s).
Viability and BrdU thymidine incorporation assays were performed in multiwell plates seeded with cells in growth medium. After seeding, multiwell plates were cultured for 24 hours in a humidified incubator at 37° C. to promote adherence. […] The cultures were incubated for 168 hours after which the number of viable cells or the amount of thymidine incorporation in each test well was assessed by the methods as indicated above. Readouts were performed using an EnVision® Multilabel Reader (PerkinElmer, Waltham, MA) and the results were expressed as a percent of the negative control. Percent of Control values were plotted against the corresponding Compound 1 concentration and the relative IC50 value was determined from a non-linear regression curve as the concentration where inhibition was half-maximal. For cell lines where the number of IC50 determinations exceeded one, the IC50 was expressed as the mean IC50±SD.
Half-maximal inhibitory concentration (IC50) values for Compound 1 inhibition of cell proliferation were determined for nine cancer cell lines and one normal human fibroblastcell line.

[1] = system: colorectal cancer PDX models; assay: culture-based viability inhibition assay, colorectal cancer PDX models; format: cell-based; settings: for pIC50: read-out: IC50 (range over sensitive models); for Sensitive to Compound 1 (models sensitive/tested): sensitive = IC50<1 μM
Procedure: A panel of 13 colorectal cancer PDX models and 6 colorectal cancer organoid PDX models were tested for their sensitivity to Compound 1 in culture-based viability inhibition assays. The MSI-H status of the studied colorectal cancer cell lines and their respective mutations of the MMR path genes are shown in FIG. 19.

[2] = system: OCI-LY19 human diffuse large B-cell non-Hodgkin's lymphoma xenograft; format: in vivo; settings: for Median Tumor Volume Diff.: Day 21 minus Day 0
Procedure: The therapeutic in vivo efficacy of Compound 1 was evaluated in SU60 colorectal cancer, KYSE-150 esophageal cancer, COH70 triple-negative breast cancer, GXA-3036 gastric adenocarcinoma and OCI-LY19 Diffuse Large B-Cell Non-Hodgkin's Lymphoma xenograft models. In all studies, efficacy was determined based on percent tumor growth inhibition (TGI), differences in mean tumor growth, and statistical assessment of differences in net tumor volume distributions on the day of TGI analysis between control and treated animals. Tolerability was assessed based on differences in mean body weights between control and treated animals over the course of the study.
The in vivo efficacy and tolerability of Compound 1, administered orally as the lysine salt form suspended in a 0.5% MC vehicle, were evaluated in female C.B-17 severe combined immunodeficient (scid) mice inoculated subcutaneously with OCI-LY19 tumor cells established from the bone marrow of a patient with diffuse large B-cell non-Hodgkin's lymphoma (DLBCL), stage 4B, at relapse. Each mouse was inoculated subcutaneously in the right flank with 5×10^6 OCI-LY19 tumor cells (0.1 ml) suspended in 50% Matrigel. When the average tumor size reached ˜165 mm3, test animals were randomized into 6 groups consisting of 8 mice per group and treatments were initiated. […] Compound 1-treated mice received the Compound 1 lysine salt form suspended in vehicle at 5, 15, or 50 mg/kg QD or at 25 mg/kg BID on the 3 on/4 off schedule. TGI was determined on Day 21 as (1−Difftreated/Diffcontrol)×100. Individual tumors were measured on the days shown in two dimensions using a caliper, and the tumor volumes (TV) in mm3 were calculated using the formula: TV=0.5 a×b2, where a and b are the long and short tumor diameters in mm, respectively. Mean tumor volumes±SEM were calculated and plotted versus days of dosing (FIG. 15 left panel). Body weights were measured twice weekly. Body weights±SEM were calculated and plotted versus days of dosing (FIG. 15 right panel). The difference in mean net tumor volumes on the day of TGI analysis for treated versus control animals was evaluated statistically using one-way ANOVA followed by Dunnett's multiple comparisons test; Adjusted p-values are shown where a calculated probability (p)≤0.05 was considered statistically significant.

KDM4 = assay: biochemical activities (KDM4 inhibition); settings: KDM4 isoforms, FIG. 1
[3] = system: PA0165F patient-derived pancreatic cancer organoid model; assay: organoid colony formation and viability assay, PA0165F; format: cell-based, human
Procedure: The IC50 values for Compound 1 inhibition of colony formation and viability were determined for the patient-derived colon cancer organoid models: SU60, T002C, SU62, SU34, SU103, T03SC, and SU106, patient-derived pancreatic cancer organoid models PA016SF, PA0143F, T016P, and T028P, and a patient-derived breast cancer organoid model FS5S3.
Colony formation and viability assays were performed in multiwell plates seeded with organoids using an in vitro culture system composed of a Matrigel layer, media containing a defined set of growth factors, and co-culture with Wnt3 A-secreting mouse embryonic fibroblasts. Assays were initiated by adding either DMSO as a negative control, or an inhibitor panobinostatat 100×IC50 concentration as a positive control, or serially diluted Compound 1. The cultures were incubated for 168 or 144 hours after which the number of viable organoids in each test well was assessed respectively using one of two detection methods: CTG or staining with calcein-AM followed by imaging and colony counting. Colony count or viability of cells treated with compound 1 was expressed as a percent of the negative control. Aggregated Percent of Control values were plotted against the corresponding Compound 1 concentration and the absolute IC50 value was determined from a non-linear regression curve as the concentration where inhibition was 50% of the control.

[4] = MSI colorectal cancer PDX models
[5] = MSS colorectal cancer PDX models

SMILES: CC(C)c1ccc(N(C)c2ccc3c(c2)OCC[C@H]3CNc2cnccc2C(=O)O)cc1 [Compound 1, 3-({[(4R)-7-{methyl[4-(propan-2-yl)phenyl]amino}-3,4-dihydro-2H-1-benzopyran-4-yl]methyl}amino)pyridine-4-carboxylic acid]
- pIC50 (ZR-75-1): < 5.00
- pIC50 [1, 4]: 7.85 to 9.00
- Sensitive to Compound 1 (models sensitive/tested) [1, 4]: 5 out of 5 and 5/5
- pIC50 [1, 5]: 6.57 to 8.52
- Sensitive to Compound 1 (models sensitive/tested) [1, 5]: 4 out of 8 and 4/8
- % TGI ([2]; 5 mg/kg PO QD 3 on/4 off, Day 21, 5 mg/kg): 55%
- Median Tumor Volume Diff. ([2]; 5 mg/kg PO QD 3 on/4 off): 920 mm^3
- % TGI ([2]; 15 mg/kg PO QD 3 on/4 off, Day 21, 15 mg/kg): 83%
- Median Tumor Volume Diff. ([2]; 15 mg/kg PO QD 3 on/4 off): 345 mm^3
- % TGI ([2]; 25 mg/kg PO BID 3 on/4 off, Day 21, 25 mg/kg): 102%
- Median Tumor Volume Diff. ([2]; 25 mg/kg PO BID 3 on/4 off): −32 mm^3
- % TGI ([2]; 50 mg/kg PO QD 3 on/4 off, Day 21, 50 mg/kg): 90%
- Median Tumor Volume Diff. ([2]; 50 mg/kg PO QD 3 on/4 off): 196 mm^3
- tolerability (mean body weights) ([2]; female C.B-17 scid mice, all Compound 1 regimens): well-tolerated
- Median Tumor Volume Day 21 ([2]; female C.B-17 scid mice, lysine salt 5 mg/kg PO QD 3 on/4 off): 1088 mm^3
- Median Tumor Volume Day 21 ([2]; female C.B-17 scid mice, lysine salt 15 mg/kg PO QD 3 on/4 off): 512 mm^3
- Median Tumor Volume Day 21 ([2]; female C.B-17 scid mice, lysine salt 25 mg/kg (free acid equivalents) PO BID 3 on/4 off): 135 mm^3
- Median Tumor Volume Day 21 ([2]; female C.B-17 scid mice, lysine salt 50 mg/kg PO QD 3 on/4 off): 361 mm^3
- biochemical activities (KDM4): potent PAN KDM4 inhibitor
- pIC50 ([3]; Homo sapiens, PA0165F pancreatic carcinoma model): > 7.52
- pIC50 ([3]; PA0165F human pancreatic carcinoma organoid, 144 hrs, Colony Counts): 7.80
- pIC50 ([3]; PA0165F human pancreatic carcinoma organoid, 168 hrs, CTG): 7.54
